According to patent US8796245B2 (TetraPhase Pharmaceuticals, Inc., priority 2008, dated 2014):
≈ marks a conversion by molar mass, not a printed value.

Columns and labels:
Assay type in all cases: cell-based
[1] = tested on: P. aeruginosa ATCC 27853 (PA111); experiment: Minimum inhibitory concentration assay, PA111; conditions: Pseudomonas aeruginosa, ATCC27853; P. aeruginosa ATCC 27853, wt; read-out: MICs PA111
Procedure: (§1) Frozen bacterial strains were thawed and subcultured onto Mueller Hinton Broth (MHB) or other appropriate media (Streptococcus requires blood and Haemophilus requires hemin and NAD). Following incubation overnight, the strains were subcultured onto Mueller Hinton Agar and again incubated overnight. […] Isolated colonies were selected to prepare a starting inoculum equivalent to a 0.5 McFarland standard. The starting inoculum was diluted 1:125 using MHB for further use. Test compounds were prepared by dilution in sterile water to a final concentration of 5.128 mg/mL. Antibiotics (stored frozen, thawed and used within 3 hours of thawing) and compounds were further diluted to the desired working concentrations.
(§2) The assays were run as follows. Fifty μL of MHB was added to wells 2-12 of a 96-well plate. One hundred […] of appropriately diluted antibiotics was added to well 1. Fifty μL of antibiotics was removed from well 1 and added to well 2 and the contents of well 2 mixed by pipetting up and down five times. Fifty μL of the mixture in well 2 was removed and added to well 3 and mixed as above. Serial dilutions were continued in the same manner through well 12. Fifty μL was removed from well 12 so that all contained 50 μL. Fifty μL of the working inoculum was then added to all test wells. A growth control well was prepared by adding 50 μL of working inoculum and 50 μL of MHB to an empty well. The plates were then incubated at 37° C. overnight, removed from the incubator and each well was read on a plate reading mirror. The lowest concentration (MIC) of test compound that inhibited the growth of the bacteria was recorded.

[2] = tested on: S. pneumoniae SP160 (tet resistant: tet M); experiment: Minimum inhibitory concentration assay, SP160; conditions: Streptococcus pneumoniae, read-out: MICs SP160
Procedure: as §1, §2

[3] = tested on: E. cloacae ATCC 13047 (EC108); experiment: Minimum inhibitory concentration assay, EC108; conditions: Enterobacter cloacae, ATCC13047; E. cloacae ATCC 13047, wt; read-out: MICs EC108
Procedure: as §1, §2

[4] = tested on: E. faecalis ATCC 29212 (EF103); experiment: Minimum inhibitory concentration assay, EF103; conditions: Enterococcus faecalis, ATCC29212, read-out: MICs EF103
Procedure: as §1, §2

[5] = tested on: E. faecalis EF159 (tet resistant: tetM); experiment: Minimum inhibitory concentration assay, EF159; conditions: Enterococcus faecalis, read-out: MICs EF159
Procedure: as §1, §2

[6] = tested on: S. aureus SA161 (tet resistant: tet(M) ribosomal protection); experiment: Minimum inhibitory concentration assay, SA161; conditions: Staphylococcus aureus, read-out: MICs SA161
Procedure: as §1, §2

[7] = tested on: S. aureus ATCC 29213 (SA101, MSSA); experiment: Minimum inhibitory concentration assay, SA101; conditions: Staphylococcus aureus; S. aureus ATCC 29213, MSSA control; read-out: MICs SA101
Procedure: as §1, §2

[8] = tested on: S. pneumoniae ATCC 49619 (SP106); experiment: Minimum inhibitory concentration assay, SP106; conditions: Streptococcus pneumoniae, ATCC49619; S. pneumoniae ATCC 49619, wt; read-out: MICs SP106
Procedure: as §1, §2

[9] = tested on: A. baumanii ATCC 19606 (AB110); experiment: Minimum inhibitory concentration assay, AB110; conditions: Acinetobacter baumannii, ATCC19606; A. baumanii ATCC 19606, wt; read-out: MICs AB110
Procedure: as §1, §2

[10] = tested on: S. aureus ATCC 13709 (SA100, MSSA, Smith strain); experiment: Minimum inhibitory concentration assay, SA100; conditions: Staphylococcus aureus; S. aureus ATCC 13709, MSSA Smith strain; read-out: MICs SA100
Procedure: as §1, §2

[11] = tested on: S. aureus SA158 (tet resistant: tetK efflux); experiment: microbe, parasite or virus in culture; conditions: Staphylococcus aureus, read-out: MICs SA158
Procedure: as §1, §2

[12] = tested on: K. pneumoniae KP153 (tet resistant: tetA efflux); experiment: microbe, parasite or virus in culture; conditions: Klebsiella pneumoniae, read-out: MICs KP153
Procedure: as §1, §2

[13] = tested on: E. coli EC155 (tet resistant: tetA efflux); experiment: microbe, parasite or virus in culture; conditions: Escherichia coli; E. coli tet resistant: tetA (efflux); read-out: MICs EC155
Procedure: as §1, §2

[14] = tested on: K. pneumoniae ATCC 13883 (KP109); experiment: Minimum inhibitory concentration assay, KP109; conditions: Klebsiella pneumoniae, ATCC13883; K. pneumoniae ATCC 13883, wt; read-out: MICs KP109
Procedure: as §1, §2

[15] = tested on: E. coli ATCC 25922 (EC107); experiment: Minimum inhibitory concentration assay, EC107; conditions: Escherichia coli, ATCC25922; E. coli ATCC 25922, wt; read-out: MICs EC107
Procedure: as §1, §2

| Structure (SMILES) | MIC [1] [µg/mL] | MIC [2] [µg/mL] | MIC [3] [µg/mL] | MIC [4] [µg/mL] | MIC [5] [µg/mL] | MIC [6] [µg/mL] | MIC [7] [µg/mL] | MIC [8] [µg/mL] | MIC [9] [µg/mL] | MIC [10] [µg/mL] | MIC [11] [µg/mL] | MIC [12] [µg/mL] | MIC [13] [µg/mL] | MIC [14] [µg/mL] | MIC [15] [µg/mL] |
| --- | --- | --- | --- | --- | --- | --- | --- | --- | --- | --- | --- | --- | --- | --- | --- |
| CN(C)CC(=O)Nc1cc(F)c2c(c1O)C(=O)C1=C(O)[C@]3(O)C(=O)C(C(N)=O)=C(O)[C@@H](N(C)C)[C@@H]3C[C@@H]1C2 [Compound 23] | 8 (≈ 15 µM) | ≤ 0.0156 | 1 (≈ 1.88 µM) | ≤ 0.0156 | 0.0313 (≈ 0.0588 µM) | 0.125 (≈ 0.235 µM) | ≤ 0.0156 | ≤ 0.0156 | 0.125 (≈ 0.235 µM) | 0.5 (≈ 0.939 µM) | 0.25 (≈ 0.469 µM) | 8 (≈ 15 µM) | 8 (≈ 15 µM) | 0.5 (≈ 0.939 µM) | 0.125 (≈ 0.235 µM) |
| CN(C)[C@@H]1C(O)=C(C(N)=O)C(=O)[C@@]2(O)C(O)=C3C(=O)c4c(O)c(NC(=O)CN5CC[C@H](F)C5)cc(F)c4C[C@H]3C[C@@H]12 [Compound 36] | > 32 | ≤ 0.0156 | 4 (≈ 6.94 µM) | 0.25 (≈ 0.434 µM) | 0.25 (≈ 0.434 µM) | 0.5 (≈ 0.867 µM) | 0.25 (≈ 0.434 µM) | ≤ 0.0156 | 0.125 (≈ 0.217 µM) | 0.5 (≈ 0.867 µM) | 1 (≈ 1.73 µM) | 32 (≈ 55.5 µM) | 32 (≈ 55.5 µM) | 4 (≈ 6.94 µM) | 2 (≈ 3.47 µM) |
| CN(C)[C@@H]1C(O)=C(C(N)=O)C(=O)[C@@]2(O)C(O)=C3C(=O)c4c(O)c(NC(=O)CN5CCCCC5)cc(F)c4C[C@H]3C[C@@H]12 [Compound 43] | 32 (≈ 55.9 µM) | ≤ 0.0156 | 4 (≈ 6.99 µM) | 0.25 (≈ 0.437 µM) | 0.5 (≈ 0.873 µM) | 1 (≈ 1.75 µM) | 0.5 (≈ 0.873 µM) | ≤ 0.0156 | 0.125 (≈ 0.218 µM) | 0.5 (≈ 0.873 µM) | 0.5 (≈ 0.873 µM) | 4 (≈ 6.99 µM) | 4 (≈ 6.99 µM) | 2 (≈ 3.49 µM) | 1 (≈ 1.75 µM) |
| CCCCCNCC(=O)Nc1cc(F)c2c(c1O)C(=O)C1=C(O)[C@]3(O)C(=O)C(C(N)=O)=C(O)[C@@H](N(C)C)[C@@H]3C[C@@H]1C2 [Compound 26] | 16 (≈ 27.8 µM) | ≤ 0.0156 | 2 (≈ 3.48 µM) | 0.25 (≈ 0.435 µM) | 0.5 (≈ 0.87 µM) | 1 (≈ 1.74 µM) | 1 (≈ 1.74 µM) | ≤ 0.0156 | 0.25 (≈ 0.435 µM) | 1 (≈ 1.74 µM) | 1 (≈ 1.74 µM) | 4 (≈ 6.96 µM) | 4 (≈ 6.96 µM) | 2 (≈ 3.48 µM) | 0.5 (≈ 0.87 µM) |
| COC[C@@H]1CCCN1CC(=O)Nc1cc(F)c2c(c1O)C(=O)C1=C(O)[C@]3(O)C(=O)C(C(N)=O)=C(O)[C@@H](N(C)C)[C@@H]3C[C@@H]1C2 [Compound 41] | > 32 | 0.125 (≈ 0.207 µM) | 16 (≈ 26.6 µM) | 1 (≈ 1.66 µM) | 2 (≈ 3.32 µM) | 2 (≈ 3.32 µM) | 1 (≈ 1.66 µM) | 0.125 (≈ 0.207 µM) | 0.5 (≈ 0.83 µM) | 1 (≈ 1.66 µM) | 1 (≈ 1.66 µM) | 16 (≈ 26.6 µM) | 16 (≈ 26.6 µM) | 8 (≈ 13.3 µM) | 4 (≈ 6.64 µM) |
| CN(C)[C@@H]1C(O)=C(C(N)=O)C(=O)[C@@]2(O)C(O)=C3C(=O)c4c(O)c(NC(=O)CN5Cc6ccccc6C5)cc(F)c4C[C@H]3C[C@@H]12 [Compound 46] | > 32 | 0.125 (≈ 0.206 µM) | 32 (≈ 52.8 µM) | 0.25 (≈ 0.412 µM) | 0.5 (≈ 0.824 µM) | 0.5 (≈ 0.824 µM) | 0.25 (≈ 0.412 µM) | 0.125 (≈ 0.206 µM) | 0.125 (≈ 0.206 µM) | 0.25 (≈ 0.412 µM) | 0.25 (≈ 0.412 µM) | 32 (≈ 52.8 µM) | 4 (≈ 6.59 µM) | 4 (≈ 6.59 µM) | 2 (≈ 3.3 µM) |
